Results as given in patent publication US12655041B2, “Method for operating reverse osmosis membrane device, a slime control method, and a water treatment device” (priority 2021, dated 2026).

What was measured:
[1] = tested on: slime in a reverse osmosis membrane; assay: Test Example 4: number of days for the differential pressure to reach 100 kPa; set-up: species or system microorganism; conditions: days for differential pressure to reach 100 kPa; substrates 30 mg/L as C, 10 mg/L as N, 0.5 mg/L as P; 20° C.; no addition: 10
Protocol: (§1) A substrate was added to raw water, and a biofouling effect of a microorganism was accelerated. Specifically, as substrates, ethanol, ammonium chloride and sodium dihydrogen phosphate were added to raw water so that the concentrations reached 50 mg/L as C, 10 mg/L as N and 0.5 mg/L as P, respectively, thereby producing water to be treated. The pH of the raw water (water to be treated) was 6 to 8, TOC was 1 mg/L, ORP was 300 mV, and the water temperature was 25° C.
This water to be treated was pressurized to 1.5 MPa with a pump and supplied as supply water (the water amount was 100 mL/min, the water pressure was […], and the water temperature was 25° C.) to a concentrate compartment of an RO membrane device, and an RO membrane treatment was performed. As the RO membrane device, a device in which one vessel was filled with a 4-inch spiral RO membrane element of an aromatic polyamide-based RO membrane (manufactured by Nitto Denko Corporation, ES20) was used. The flow rate of the supply water was 3 to 10 m^3/h per 8-inch spiral module. A change in the differential pressure means a change in the difference of the pressure at each water-passing time after the beginning of measurement from 0 kPa that is a set pressure at the time of the beginning of the measurement.
(§2) Upon the evaluation of slime inhibition in a reverse osmosis membrane, the number of days taken for the differential pressure to increase up to 100 kPa under conditions shown in Table 1 was measured using a membrane fouling simulator that is in Non-Patent Literature 1 (J. S. Vrouwenvelder et. al.), and the day where this differential pressure was reached was regarded as a day when biofouling occurred, that is, an occlusion day. It is evaluated that, as the number of days taken until this occlusion increases, slime can be inhibited more favorable.
A test was performed under the same conditions as in <Test Example 1> except that water to be treated prepared by adding, as substrates, ethanol, ammonium chloride and sodium dihydrogen phosphate to raw water so that the concentrations reached 30 mg/L as C, 10 mg/L as N and 0.5 mg/L as P, respectively, was used, the water temperature of the water to be treated was set and adjusted to 20° C., and the addition periods and addition concentrations of the slime inhibitors were set as shown in Table 2.
The oxidation-based slime inhibitor is continuously added “for 30 minutes”, and the water to be treated containing the chemical is continuously passed through the RO membrane device downstream thereof “for 30 minutes”.
The organic-based slime inhibitor is continuously added “for 30 minutes”, and the water to be treated containing the chemical is continuously passed through the RO membrane device downstream thereof “for 30 minutes”. […]

[2] = tested on: slime in a reverse osmosis membrane; assay: Test Example 1: evaluation of slime inhibition in reverse osmosis membrane (membrane fouling simulator, days to 100 kPa differential pressure); set-up: species or system microorganism; conditions: days for differential pressure to reach 100 kPa; substrates ethanol 50 mg/L as C, ammonium chloride 10 mg/L as N, sodium dihydrogen phosphate 0.5 mg/L as P; 25° C.; no chemical added: 8
Protocol: as §1
This water to be treated was pressurized to 1.5 MPa with a pump and supplied as supply water (the water amount was 100 mL/min, the water pressure was 0.2 MPa, and the water temperature was 25° C.) to a concentrate compartment of an RO membrane device, and an RO membrane treatment was performed. […]
as §2

SMILES | Number of days until occlusion [1] | Number of days until occlusion [2]
Cn1sc(Cl)cc1=O [4-5, 5-chloro-2-methyl-4-isothiazolin-3-one] | 18 days | –
Cn1sc(Cl)cc1=O [4-4, 5-chloro-2-methyl-4-isothiazolin-3-one] | 32 days | –
O=S(=O)([O-])NCl.[Na+] [Comparative Example 1-2, Sodium monochlorosulfamate] | – | 12 days
Cn1sc(Cl)cc1=O [1-3, 5-chloro-2-methyl-4-isothiazolin-3-one] | – | 15 days
O=S(=O)([O-])NCl.[Na+] [4-2, Sodium monochlorosulfamate] | 12 days | –
O=S(=O)([O-])NCl.[Na+] [4-3, Sodium monochlorosulfamate] | 30 days | –
